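Step 1: Grow cells in 96-well plates. Step 2: Expose to compound for 48 hours at 5 concentrations. Step 3: Interpolate endpoints linearly; if unreached, use highest concentration. At the TGI there is no net growth.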
Assays:
Test in all cases: NCI tumour cell line growth inhibition, 48 h
[1] = system: KM12 colon
[2] = system: HS 578T breast
[3] = system: CAKI-1 renal
[4] = system: UO-31 renal
[5] = system: NCI-H23 lung
[6] = system: COLO 205 colon
[7] = system: RXF 393 renal
[8] = system: NCI-H460 lung
[9] = system: SW-620 colon
[10] = system: U251 CNS
[11] = system: NCI-H522 lung
[12] = system: SK-MEL-28 melanoma
[13] = system: PC-3 prostate
[14] = system: OVCAR-4 ovarian
[15] = system: SF-295 CNS
[16] = system: T-47D breast
[17] = system: SNB-75 CNS
[18] = system: LOX IMVI melanoma
[19] = system: NCI-H226 lung
[20] = system: MDA-MB-231 breast

| Structure (SMILES) | TGI [1] [µM] | TGI [2] [µM] | TGI [3] [µM] | TGI [4] [µM] | TGI [5] [µM] | TGI [6] [µM] | TGI [7] [µM] | TGI [8] [µM] | TGI [9] [µM] | TGI [10] [µM] | TGI [11] [µM] | TGI [12] [µM] | TGI [13] [µM] | TGI [14] [µM] | TGI [15] [µM] | TGI [16] [µM] | TGI [17] [µM] | TGI [18] [µM] | TGI [19] [µM] | TGI [20] [µM] |
| --- | --- | --- | --- | --- | --- | --- | --- | --- | --- | --- | --- | --- | --- | --- | --- | --- | --- | --- | --- | --- |
| COC(=O)C1(NC(=O)C(N)CC(=O)O)C(C)C1C (stereo not given) | > 100 | > 100 | > 100 | > 100 | > 100 | > 100 | > 100 | > 100 | > 100 | > 100 | > 100 | > 100 | > 100 | > 100 | > 100 | > 100 | > 100 | > 100 | > 100 | > 100 |
| N=C1N=C(N)c2cc3c(cc21)SCCSCCCSCCS3 | 26.7 | 44.2 | > 63.4 | > 100 | 16.2 | 16.9 | 41.3 | 29.9 | 30.7 | > 50.7 | 11.1 | 31.4 | 34.7 | 56.5 | 31.1 | 69.1 | 46.9 | 17.6 | > 73.2 | 39.6 |
| O=C(c1ccc(Cl)cc1)N(Cc1cccnc1)C(=S)N(Cc1cccnc1)C(=O)c1ccc(Cl)cc1 | > 100 | > 100 | > 100 | 98.4 | > 100 | 43.4 | > 100 | > 100 | > 100 | 53.6 | 69.1 | > 100 | 90.3 | 79.7 | > 100 | > 100 | > 100 | 47.4 | > 100 | 59.3 |
| CC(O)(c1ccccc1)c1nccc2ccccc12 (stereo not given) | > 100 | > 100 | > 100 | > 100 | > 100 | > 100 | > 100 | > 100 | > 100 | > 100 | > 100 | > 100 | > 100 | > 100 | > 100 | > 100 | > 100 | > 100 | > 100 | > 100 |
